Experimental data reported in PMC6102536, “A Metabolism-Based Synergy for Total Coumarin Extract of Radix Angelicae Dahuricae and Ligustrazine on Migraine Treatment in Rats” (Molecules : A Journal of Synthetic Chemistry and Natural …, 2018).
pIC50: −log10 of the molar value. Where two headings read alike, the source gives them in different places.

Experiments:
Test in all cases: P450-Glo inhibition assay, recombinant CYP
Assay type in all cases: biochemical
CYP2D6 = molecular target: T1, CYP2D6 (Homo sapiens, UniProt P10635)
T1 construct: recombinant CYP450, commercial (Research Institute for Liver Diseases, Shanghai); P450-Glo Screening System (Promega)

CYP2C19 = molecular target: T2, CYP2C19 (Homo sapiens, UniProt P33261)
T2 construct: recombinant CYP450, commercial (Research Institute for Liver Diseases, Shanghai); P450-Glo Screening System (Promega)

CYP2C9 = molecular target: T3, CYP2C9 (Homo sapiens, UniProt P11712)
T3 construct: recombinant CYP450, commercial (Research Institute for Liver Diseases, Shanghai); P450-Glo Screening System (Promega)

CYP1A2 = molecular target: T4, CYP1A2 (Homo sapiens, UniProt P05177)
T4 construct: recombinant CYP450, commercial (Research Institute for Liver Diseases, Shanghai); P450-Glo Screening System (Promega)
T4 sequence (P05177 2-516): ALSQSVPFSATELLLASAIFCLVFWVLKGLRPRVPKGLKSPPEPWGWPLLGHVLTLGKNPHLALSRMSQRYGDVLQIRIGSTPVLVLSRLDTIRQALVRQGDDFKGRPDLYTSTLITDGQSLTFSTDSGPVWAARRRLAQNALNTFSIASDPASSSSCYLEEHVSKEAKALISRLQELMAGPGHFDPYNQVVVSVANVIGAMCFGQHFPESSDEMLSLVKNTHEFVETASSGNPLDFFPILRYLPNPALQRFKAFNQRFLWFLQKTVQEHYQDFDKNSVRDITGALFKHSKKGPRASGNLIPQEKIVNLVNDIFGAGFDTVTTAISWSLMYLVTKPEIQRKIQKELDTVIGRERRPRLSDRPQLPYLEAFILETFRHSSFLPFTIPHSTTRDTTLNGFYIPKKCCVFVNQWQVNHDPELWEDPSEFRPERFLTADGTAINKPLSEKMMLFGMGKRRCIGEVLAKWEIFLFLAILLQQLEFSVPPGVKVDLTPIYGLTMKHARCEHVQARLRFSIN

CYP3A4 = molecular target: T5, CYP3A4 (Homo sapiens, UniProt P08684); conditions: read-out: IC50 (μM) (95% Confidence Interval) / Isoimperatorin
T5 construct: recombinant CYP450, commercial (Research Institute for Liver Diseases, Shanghai); P450-Glo Screening System (Promega)

[1] = read-out: IC50 (μM) (95% Confidence Interval) / Isoimperatorin

T3 sequence (P11712 whole entry): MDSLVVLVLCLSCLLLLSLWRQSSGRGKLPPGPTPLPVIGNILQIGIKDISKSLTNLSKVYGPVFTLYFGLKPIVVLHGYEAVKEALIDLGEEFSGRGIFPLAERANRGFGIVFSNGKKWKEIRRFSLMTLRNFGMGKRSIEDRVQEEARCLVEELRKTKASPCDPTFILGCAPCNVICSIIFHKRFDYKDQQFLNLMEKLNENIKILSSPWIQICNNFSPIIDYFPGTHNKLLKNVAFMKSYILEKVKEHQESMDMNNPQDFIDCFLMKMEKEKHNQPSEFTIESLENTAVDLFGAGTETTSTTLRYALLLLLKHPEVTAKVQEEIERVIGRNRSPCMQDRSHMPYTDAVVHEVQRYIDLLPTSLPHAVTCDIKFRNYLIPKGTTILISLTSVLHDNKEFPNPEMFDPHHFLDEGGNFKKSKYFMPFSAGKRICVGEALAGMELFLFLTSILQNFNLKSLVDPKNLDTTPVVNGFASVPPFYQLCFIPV
T2 sequence (P33261 whole entry): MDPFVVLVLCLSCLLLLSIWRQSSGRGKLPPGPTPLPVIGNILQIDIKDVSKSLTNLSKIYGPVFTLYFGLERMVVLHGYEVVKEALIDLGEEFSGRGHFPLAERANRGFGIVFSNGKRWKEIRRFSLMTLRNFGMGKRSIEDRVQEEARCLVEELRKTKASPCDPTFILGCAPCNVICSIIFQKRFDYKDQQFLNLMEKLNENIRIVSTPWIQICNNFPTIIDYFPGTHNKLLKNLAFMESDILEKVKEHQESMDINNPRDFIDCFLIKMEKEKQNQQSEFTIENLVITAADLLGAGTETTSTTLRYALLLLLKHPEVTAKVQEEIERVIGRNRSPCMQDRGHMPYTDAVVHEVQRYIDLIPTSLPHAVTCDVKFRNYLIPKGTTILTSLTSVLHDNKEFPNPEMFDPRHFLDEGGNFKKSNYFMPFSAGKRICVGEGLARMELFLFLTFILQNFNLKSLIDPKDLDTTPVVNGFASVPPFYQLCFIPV
T1 sequence (P10635 whole entry): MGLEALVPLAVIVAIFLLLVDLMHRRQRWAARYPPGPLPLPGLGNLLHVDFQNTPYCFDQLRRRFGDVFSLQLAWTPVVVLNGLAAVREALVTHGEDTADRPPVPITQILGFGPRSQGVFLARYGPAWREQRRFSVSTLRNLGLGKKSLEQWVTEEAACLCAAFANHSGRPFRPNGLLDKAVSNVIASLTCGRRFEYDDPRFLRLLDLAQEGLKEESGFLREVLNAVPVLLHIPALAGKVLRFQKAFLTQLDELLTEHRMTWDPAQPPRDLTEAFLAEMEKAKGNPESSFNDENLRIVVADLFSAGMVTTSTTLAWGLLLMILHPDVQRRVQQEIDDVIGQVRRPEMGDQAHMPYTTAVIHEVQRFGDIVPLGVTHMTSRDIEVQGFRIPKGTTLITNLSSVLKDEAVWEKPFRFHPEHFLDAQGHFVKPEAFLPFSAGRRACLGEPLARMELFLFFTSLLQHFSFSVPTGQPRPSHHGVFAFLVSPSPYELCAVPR
T5 sequence (P08684 2-503): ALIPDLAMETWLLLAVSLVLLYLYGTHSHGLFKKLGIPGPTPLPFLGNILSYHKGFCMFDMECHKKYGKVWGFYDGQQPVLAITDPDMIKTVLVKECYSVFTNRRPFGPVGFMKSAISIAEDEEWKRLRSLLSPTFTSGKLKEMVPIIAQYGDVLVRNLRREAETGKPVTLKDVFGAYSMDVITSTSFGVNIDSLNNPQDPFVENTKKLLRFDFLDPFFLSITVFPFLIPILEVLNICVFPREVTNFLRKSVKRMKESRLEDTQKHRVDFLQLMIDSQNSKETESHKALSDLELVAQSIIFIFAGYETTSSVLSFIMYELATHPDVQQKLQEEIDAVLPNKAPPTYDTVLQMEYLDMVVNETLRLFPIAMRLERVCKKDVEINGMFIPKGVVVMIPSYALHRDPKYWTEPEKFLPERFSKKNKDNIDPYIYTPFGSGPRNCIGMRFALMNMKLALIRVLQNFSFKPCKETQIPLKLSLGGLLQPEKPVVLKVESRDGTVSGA

| Compound | pIC50 (CYP2D6) | pIC50 (CYP2C19) | pIC50 (CYP2C9) | pIC50 (CYP1A2) | IC50 (CYP2D6; [1]) | IC50 (CYP2C19; [1]) | IC50 (CYP2C9; [1]) | IC50 (CYP1A2; [1]) | IC50 (CYP3A4) |
| --- | --- | --- | --- | --- | --- | --- | --- | --- | --- |
| CC(C)=CCOc1c2occc2cc2ccc(=O)oc12 [imperatorin] | 5.04 | 4.08 | 5.32 | 7.10 | – | – | – | – | – |
| CC(C)=CCOc1c2ccoc2cc2oc(=O)ccc12 [isoimperatorin] | – | – | – | – | 1.56 µM | 19.6 µM | 5.69 µM | 8.26 µM | 1.47 µM |
